Test results reported in patent US10941113B2, “Sulfamoyl-arylamides and the use thereof as medicaments for the treatment of hepatitis B” (Janssen Sciences Ireland UC, priority 2013, dated 2021).

Legend:
Type in all cases: cell-based
[1] = test system: HBV; experiment: Anti-HBV activity, HepG2.117 inducible HBV producing cell line (Tet-off), intracellular HBV DNA by realtime PCR; conditions: Hepatitis B virus, 72 h, HepG2.117 cells, 3 days of treatment
[2] = Cytotoxicity in HepG2 cells, Resazurin assay; conditions: human, incubated 4 days, Resazurin viability
[3] = test system: HBV; experiment: Anti-HBV activity, HepG2.2.15 stable transfected cell line, HBV DNA from secreted virions by realtime PCR; conditions: Hepatitis B virus, 144 h, HepG2.2.15 cells, 6 days of treatment

Compound | EC50 [1] [nM] | CC50 at 4 days [2] [nM] | EC50 [3] [nM]
Cc1cc(NC(=O)c2cc(S(=O)(=O)N[C@H](C)CO)ccc2C)ccc1F [Compound 38] | 180 | > 25000 | 160
COC(=O)NC[C@H](C)NS(=O)(=O)c1cccc(C(=O)Nc2ccc(F)c(C)c2)c1 [Compound 1b] | 1570 | > 25000 | 1850
Cc1cc(NC(=O)c2cccc(S(=O)(=O)N[C@H](C)C(N)=O)c2)ccc1F [Compound 22] | 500 | > 25000 | 550
Cc1cc(NC(=O)c2cccc(S(=O)(=O)NC(C)C(C)CO)c2)ccc1F (stereo not drawn) [Compound 25] | 570 | > 25000 | 250
Cc1cc(NC(=O)c2cccc(S(=O)(=O)NC(C)(C)CO)c2)ccc1F [Compound 14] | 530 | > 25000 | 380
Cc1cc(NC(=O)c2cccc(S(=O)(=O)NC(C)CO)c2)ccc1F (stereo not drawn) [Compound 4, N-(4-fluoro-3-methyl-phenyl)-3-[(2-hydroxy-1-methyl-ethyl)sulfamoyl]benzamide] | 320 | > 25000 | 280
Cc1cc(NC(=O)c2cccc(S(=O)(=O)NCCCC(=O)N(C)C)c2)ccc1F [Compound 17] | 610 | > 25000 | 260
CNCC(C)NS(=O)(=O)c1cccc(C(=O)Nc2ccc(F)c(C)c2)c1 (stereo not drawn) [Compound 2] | 2400 | > 25000 | 9400
COC(=O)NCC(C)NS(=O)(=O)c1cccc(C(=O)Nc2ccc(F)c(C)c2)c1 (stereo not drawn) [Compound 1] | 370 | > 25000 | 130
Cc1cc(NC(=O)c2cccc(S(=O)(=O)N[C@H](CO)C(C)C)c2)ccc1F [Compound 11] | 830 | > 25000 | 550
Cc1cc(NC(=O)c2cccc(S(=O)(=O)NCC(C)(C)C(=O)O)c2)ccc1F [Compound 37] | 3030 | > 25000 | 2680
Cc1cc(NC(=O)c2cccc(S(=O)(=O)NC(C)CCCC(C)(C)O)c2)ccc1F (racemic) [Compound 21] | 1710 | > 25000 | 170
Cc1cc(NC(=O)c2cccc(S(=O)(=O)N[C@@H](C)C(=O)N(C)C)c2)ccc1F [Compound 35] | 3620 | > 25000 | 2700
Cc1cc(NC(=O)c2cccc(S(=O)(=O)N[C@H](C)CC#N)c2)ccc1F (racemic) [Compound 10a] | 140 | > 25000 | 100
Cc1cc(NC(=O)c2cccc(S(=O)(=O)NCCS(C)(=O)=O)c2)ccc1F [Compound 32] | 640 | > 25000 | 190
COCC(C)(CCO)NS(=O)(=O)c1cccc(C(=O)Nc2ccc(F)c(C)c2)c1 (stereo not drawn) [Compound 27] | 960 | > 25000 | 1160
Cc1cc(NC(=O)c2cccc(S(=O)(=O)N[C@@H](C)CO)c2)ccc1F [Compound 4b] | 940 | > 25000 | 400
Cc1cc(NC(=O)c2cccc(S(=O)(=O)NC(C)CC(=O)N(C)C)c2)ccc1F (stereo not drawn) [Compound 39] | 860 | > 25000 | 1050
C#CC(C)(C)NS(=O)(=O)c1cccc(C(=O)Nc2ccc(F)c(C)c2)c1 [Compound 16] | 590 | > 25000 | 190
CNC(=O)[C@@H](C)NS(=O)(=O)c1cccc(C(=O)Nc2ccc(F)c(C)c2)c1 [Compound 41] | 1350 | > 25000 | 2220
COC(C)(C)CC(C)NS(=O)(=O)c1cccc(C(=O)Nc2ccc(F)c(C)c2)c1 (stereo not drawn) [Compound 28] | 1410 | > 25000 | 270
COC(=O)CCC(C)NS(=O)(=O)c1cccc(C(=O)Nc2ccc(F)c(C)c2)c1 (stereo not drawn) [Compound 8] | 2800 | > 25000 | 1400
Cc1cc(NC(=O)c2cccc(S(=O)(=O)N[C@H](C)CS(C)(=O)=O)c2)ccc1F [Compound 42] | 150 | > 25000 | 250

Compound | EC50 [1] [nM] | CC50 at 4 days [2] [nM] | EC50 [3] [nM]
COCC(C)(C)NS(=O)(=O)c1cccc(C(=O)Nc2ccc(F)c(C)c2)c1 [Compound 34] | 640 | > 25000 | 540
COCC(C)(CO)NS(=O)(=O)c1cccc(C(=O)Nc2ccc(F)c(C)c2)c1 (stereo not drawn) [Compound 31] | 470 | > 25000 | 480
Cc1cc(NC(=O)c2cccc(S(=O)(=O)NC(C)CCC(=O)N(C)C)c2)ccc1F (stereo not drawn) [Compound 6] | 110 | > 25000 | 180
Cc1cc(NC(=O)c2cccc(S(=O)(=O)N[C@@H](C)C(N)=O)c2)ccc1F [Compound 23] | 1430 | > 25000 | 1100
CNC(=O)CCC(C)NS(=O)(=O)c1cccc(C(=O)Nc2ccc(F)c(C)c2)c1 (stereo not drawn) [Compound 7] | 240 | > 25000 | 540
CCC(C)(CO)NS(=O)(=O)c1cccc(C(=O)Nc2ccc(F)c(C)c2)c1 (stereo not drawn) [Compound 26] | 340 | > 25000 | 390
Cc1cc(NC(=O)c2cccc(S(=O)(=O)NC(C)CC#N)c2)ccc1F (racemic) [Compound 10] | 190 | > 25000 | 220
COCCC(C)NS(=O)(=O)c1cccc(C(=O)Nc2ccc(F)c(C)c2)c1 (stereo not drawn) [Compound 24] | 1370 | > 25000 | 210
COC(=O)N(C)CC(C)NS(=O)(=O)c1cccc(C(=O)Nc2ccc(F)c(C)c2)c1 (stereo not drawn) [Compound 20] | 560 | > 25000 | 550
Cc1cc(NC(=O)c2cccc(S(=O)(=O)N[C@@H](C)CNC(=O)OC(C)(C)C)c2)ccc1F [Compound 19] | 500 | > 25000 | 740
Cc1cc(NC(=O)c2cccc(S(=O)(=O)N[C@H](C)CNC(=O)OC(C)(C)C)c2)ccc1F [Compound 18] | 190 | > 25000 | 200
Cc1cc(NC(=O)c2cccc(S(=O)(=O)NC(C)(C)CC(C)O)c2)ccc1F (stereo not drawn) [Compound 36] | 150 | > 25000 | 270
Cc1cc(NC(=O)c2cccc(S(=O)(=O)NC(C)C(C)O)c2)ccc1F (stereo not drawn) [Compound 33] | 260 | > 25000 | 320
COC(=O)NC[C@@H](C)NS(=O)(=O)c1cccc(C(=O)Nc2ccc(F)c(C)c2)c1 [Compound 1a] | 110 | > 25000 | 180
Cc1cc(NC(=O)c2cccc(S(=O)(=O)NC(C)C(C)(C)O)c2)ccc1F (stereo not drawn) [Compound 30] | 170 | > 25000 | 260
CC(=O)CC(C)NS(=O)(=O)c1cccc(C(=O)Nc2ccc(F)c(C)c2)c1 (stereo not drawn) [Compound 29] | 230 | > 25000 | 190
Cc1cc(NC(=O)c2cccc(S(=O)(=O)N[C@H](C)CO)c2)ccc1F [Compound 4a] | 260 | > 25000 | 210
COCC(C)NS(=O)(=O)c1cccc(C(=O)Nc2ccc(F)c(C)c2)c1 (stereo not drawn) [Compound 5] | 840 | > 25000 | 240
Cc1cc(NC(=O)c2cccc(S(=O)(=O)NC(C)(C)CCO)c2)ccc1F [Compound 15] | 320 | > 25000 | 220
Cc1cc(NC(=O)c2cccc(S(=O)(=O)N[C@H](C)C(=O)N(C)C)c2)ccc1F [Compound 40] | 2660 | > 25000 | 2280
CC(=O)NCC(C)NS(=O)(=O)c1cccc(C(=O)Nc2ccc(F)c(C)c2)c1 (stereo not drawn) [Compound 9] | 560 | > 25000 | 1300
Cc1cc(NC(=O)c2cccc(S(=O)(=O)NC(C)CCO)c2)ccc1F (stereo not drawn) [Compound 13] | 710 | > 25000 | 210
